This note sets out measurements from patent US20260042802A1, “POLYPEPTIDE AND USE THEREOF” (priority 2024, published 2026).

The test system of the test is mouse acetate acid writhing model. The experiment in a line: Mouse acetate acid writhing model. It is filed as in vivo, C57BL/6 mice. The following applies: Diclofenac Sodium Group, 30 mg/kg i.p. once daily for 7 days; 8 mice. From the text:
Seventy SPF-grade healthy C57BL/6 mice, half male and half female, weighing 22-25 g and 8-10 weeks old, are randomly selected. Seventy C57BL/6 mice are weighed and numbered in ascending order of body weight (No. S1-S70). The mice are randomly divided into seven groups in terms of the randomized numerical table method, which are the saline group and the experimental groups, among which the experimental groups include the PPN-01 group, the PPN-04 group, the PPN-06 group, the PPN-11 group, the PPN-12 group, and the PPN-16 group. The dosing concentration (i.e., the concentration of added polypeptides PPN-01, PPN-04, PPN-06, PPN-11, PPN-12, and PPN-16) in each group is 10 mg/kg, with 10 mice in each group.
Saline Group: 10 healthy mice are routinely reared for one week; the saline is intraperitoneally injected once daily at a concentration of 10 ml/kg for 7 consecutive days; 15 min after the last injection is finished, 0.7% glacial acetic acid (10 ml/kg) is intraperitoneally injected; and each mouse is observed for their writhing behaviors.
Experimental Group: 10 healthy mice are routinely reared for one week; 10 ml/kg of different polypeptides are injected intraperitoneally at a concentration of 0.1 mL/10 g once daily for 7 consecutive days; 15 min after the last injection is finished, 0.7% glacial acetic acid (10 ml/kg) is intraperitoneally injected; and each mouse is observed for their behaviors in writhing.
During the above experiments, the time of first writhing (writhing latency) and the number of writhing in each mouse within 15 min are recorded immediately after the injection of glacial acetic acid solution in each group of mice. When behavioral responses such as inward concavity of the abdomen, extension of the torso and hind limbs, and elevation of the buttocks occur, it is considered to be a complete writhing response, and the results are shown in Table 3 and FIG. 6.
Forty SPF-grade healthy C57BL/6 mice, half male and half female, weighing 22-25 g and 8-10 weeks old, are randomly selected. Forty C57BL/6 mice are weighed and numbered in ascending order of body weight (No. 1 to No. 40). The mice are randomly divided into five groups according to the randomized numerical table method, namely, the saline group, the low-concentration group (2.5 mg/kg), the medium-concentration group (10 mg/kg), the high-concentration group (40 mg/kg), and the diclofenac sodium group (30 mg/kg), with eight mice in each group.
Saline Group: 8 healthy mice are routinely reared for one week; the saline is intraperitoneally injected once daily at a concentration of 10 ml/kg for 7 consecutive days; 15 min after the last injection is finished, 0.7% glacial acetic acid (10 ml/kg) is intraperitoneally injected; and each mouse is observed for their behaviors in writhing. […]

Regarding `O=C(O)Cc1ccccc1Nc1c(Cl)cccc1Cl` [Diclofenac Sodium, diclofenac sodium, reference compound], the “Inhibiting Rate (writhing)” value worked out at 77.6%.
